In series [1] the test system is Ramos cells / immobilized VCAM-1 (extracellular domains 1–3). Description: Adhesion of Ramos cells to immobilized VCAM-1 (domains 1–3). The class given is cell-based. Conditions: Homo sapiens, 1 h. An excerpt: In Vitro Assay: Adhesion of Ramos Cells to Immobilized VCAM-1 (Domains 1–3) Preparation of VCAM-1 (extracellular domains 1–3)
Complementary DNA (cDNA) encoding 7-domain form of VCAM-1 (GenBank accession #M60335) was obtained using Rapid-ScreenTM cDNA library panels (OriGene Technologies, Inc) at Takara Gene Analysis Center (Shiga, Japan). The primers used were 5′-CCAAGGCAGAGTACGCAAAC-3′ (sense) and 5′-TGGCAGGTATTATTAAGGAG-3′ (antisense). PCR amplification of the 3-domain VCAM-1 cDNA was perform using Pfu DNA polymerase (Stratagene) with the following sets of primers: (U-VCAMd1–3) 5′-CCATATGGTACCTGATCAATTTAAAATCGAGACCACCCCAGAA-3′; (L-VCAMd1–3) 5′-CCATATAGCAATCCTAGGTCCAGGGGAGATCTCAACAGTAAA-3′. PCR cycle was 94° C. for 45 sec, 55° C. for 45 sec, 72° C. for 2 min, repeating 15 cycles. After the purification of the PCR product, the fragment was digested with KpnI-AvrII. The digested fragment was ligated into pBluescript IISK(-) (Strategene), which was linearized by digesting with KpnI-XhoI. The ligation was followed by transformation to a Dam/Dcm methylase-free E. coli strain SCS110 (Strategene) to create the donor plasmid pHH7. To direct VCAM-1 molecule into the insect cell secretory pathway, the VCAM-1 coding sequence was fused to signal peptide sequence of honeybee melittin. The resulting melittin-VCAM fusion was placed in correct orientation to the baculovirus polyhedrin promoter. Baculovirus transfer vector containing first 3-domain form VCAM-1 (pH10) was constructed by ligation of 0.9 kb fragment from AvrIIenow/BclI digests of pH7 into SalI/Klenow/BamHI digests of pMelBacB (Invitrogen). Recombinant baculovirus was generated by using Bac-N-Blue™ Transfection kit (Invitrogen) according to the manufacture's instruction. The recombinant virus was amplified by infection to High-Five™ insect cells for 5–6 days, and virus titer was determined by plaque assay.
High-Five™ insect cells were pelleted in a 225 ml conical tube by centrifugation at 1000 rpm for 5 min. After discarding the supernatant, the pellet was resuspended in 1.5×10^9 pfu (MOI=5) of high-titer virus solution, followed by incubation for 1.5 hours at room temperature. The cells were pelleted again and washed once in fresh Express Five™ serum free medium. The cells were pelleted again and finally, resuspended in 200 ml of fresh Express Five™ medium, transferred to a 1,000 ml shaker flask, and incubated in a shaker at 27° C., 130 rpm, for 48 hours before the culture supernatant was collected. […] Protein concentration was determined by using Coomassie protein assay reagent (Pierce) according to the manufacture's instruction. […]
Preparation of Fluorescence Labeled Ramos Cells: […]

The structures appear in SMILES notation.

The melting point is the temperature, or range, at which the solid turns liquid. As a reminder, the IC50 is the point on the concentration scale where inhibition reaches its midpoint. Higher therefore signals lower potency. For `COc1ccc(C(CC(=O)Nc2ccc(NC(=O)Nc3ccccc3C)cc2)NC(=O)c2ccc(C(=O)O)cc2)cc1OC` (stereo not shown) [Example 1, 4-{[(1-(3,4-Dimethoxyphenyl)-3-{[4-({[(2-methylphenyl)amino]carbonyl}amino)phenyl]amino}-3-oxopropyl)amino]carbonyl}benzoic acid], the melting point was determined as 166 °C. Moreover, the IC50 in series [1] is < 1 µM.

On to `Cc1ccccc1NC(=O)Nc1ccc(CNC(=O)C2(CNC(=O)c3ccc(C(=O)O)cc3)CCCCC2)cc1` [Example 2, 4-[({[1-({[4-({[(2-methylphenyl)amino]carbonyl}-amino)benzyl]amino}carbonyl)cyclohexyl]methyl}-amino)carbonyl]benzoicacid], for which the IC50 in series [1] was > 10 µM.

Turning to `COc1ccc(C(CC(=O)NCc2ccc(NC(=O)Nc3ccccc3C)cc2)NC(=O)c2ccc(C(=O)O)cc2)cc1OC` (stereo not shown) [Example 3, 4-{[(1-(3,4-dimethoxy-phenyl)-3-{[4-({[(2-methyl-phenyl)amino]carbonyl}amino)benzyl]amino}-3-oxopropyl)amino]carbonyl}benzoic acid], the melting point turned out to be 214 °C. Moreover, the IC50 in series [1] was > 10 µM.

`COc1cccc(C(CC(=O)Nc2ccc(NC(=O)Nc3ccccc3C)cc2)NC(=O)c2ccc(C(=O)O)cc2)c1` (stereo not shown) [Example 4, 4-{[(1-(3-methoxy-phenyl)-3-{[4-({[(2-methylphenyl)-amino]carbonyl}amino)phenyl]amino}-3-oxopropyl)amino]carbonyl}benzoic acid] gave a melting point of 275 to 280 °C. Also, the half-maximal inhibitory concentration (IC50) in series [1] was < 1 µM.

`COc1ccc(C(CC(=O)Nc2ccc(NC(=O)Nc3ccccc3C)cc2)NC(=O)c2ccc(C(=O)OC(C)(C)C)cc2)cc1OC` (stereo not shown) [Example VII, tert-Butyl-4-{[(1-(3,4-dimethoxyphenyl)-3-{[4-({[(2-methylphenyl)-amino]carbonyl}amino)phenyl]amino}-3-oxopropyl)amino]carbonyl}benzoate] came in with a melting point of 210 to 215 °C.

`COc1ccc(C(CC(=O)NCc2ccc(NC(=O)Nc3ccccc3C)cc2)NC(=O)c2ccc(C(=O)OC(C)(C)C)cc2)cc1OC` (stereo not shown) [IX, tert-Butyl-4-{[(1-(3,4-dimethoxyphenyl)-3-{[4-({[(2-methylphenyl)amino]carbonyl}amino)benzyl]amino}-3-oxopropyl)amino]carbonyl}-benzoate] showed a melting point of 223 to 226 °C.

With `Cc1ccccc1NC(=O)Nc1ccc(CNC(=O)C2(CNC(=O)c3ccc(C(=O)OC(C)(C)C)cc3)CCCCC2)cc1` [VIII, tert-Butyl 4-[({[1-({[4-({[(2-methylphenyl)amino]carbonyl}amino)benzyl]amino}carbonyl)cyclohexyl]methyl}-amino)carbonyl]benzoate], the melting point lay in the range of 187 to 189 °C.
